Ends that are not written are not given here.
How the values were obtained:
[1] = system: mouse mononuclear macrophage RAW264.7; experiment: Cytotoxicity, MTT colorimetry; type: cell-based
Procedure: (§1) For cytotoxicity determination, the MTT colorimetry was used to evaluate the effects of the compounds on the proliferation of human cervical cancer cell Hela, human embryonic renal epithelial cell HEK293 and mouse mononuclear macrophage RAW264.7.
(§2) Taking compounds 2, 8, 9, 13 and 15 of the present invention as examples, the cytotoxicity of the antibacterial polypeptide compounds was analyzed. Three cell lines were employed for the present invention, namely human cervical cancer cell Hela, human embryonic renal epithelial cell HEK293 and mouse mononuclear macrophage RAW264.7. Hela cells were cultured in RPMI 1640 medium with 10% newborn calf serum, HEK293 cells and RAW264.7 cells were cultured in DMEM medium with 10% fetal bovine serum. Simply, cells (1×10^4 cells/well) were inoculated to a 96-well plate and incubated in an incubator set to 5% CO2 at 37° C. After 24 hours, compounds of different concentrations were added and incubated in the 5% CO2 incubator. After 24 hours, 20 μL of MTT solution with a concentration of 5 mg/mL was added to each well and incubated for 4 hours. After that, the medium was removed with a pipet, and 150 μL of DMSO added to dissolve the purple-blue formazan crystals. The solution was shaken in an oscillator for 5 mins before detecting the absorbance value at 570 nm using the ELISA reader, and then the survival rate was calculated with the formula: (OD dosing group/OD control group)×100% (n=3).

[2] = system: human cervical cancer cell Hela; experiment: Cytotoxicity, MTT colorimetry; type: cell-based
Procedure: as §1, §2

[3] = system: human embryonic renal epithelial cell HEK293; experiment: Cytotoxicity, MTT colorimetry; type: cell-based
Procedure: as §1, §2

[4] = system: P-1c, clinical isolated drug-resistant strain PA; conditions: strain P-1c (PA)
Text: (§3) With respect to the determination of antibacterial activity and antifungal activity of the antibacterial polypeptide compounds, the bacterial strains employed included: E. coli (ATCC 25922), E. coli (ATCC 43837), Pseudomonas aeruginosa (ATCC 27853), Klebsiella pneumoniae (ATCC 700603), Cronobacter sakazakii (ATCC 29544), Staphylococcus aureus (ATCC 29213), Bacillus subtilis (ATCC 23857) and Staphylococcus epidermidis (ATCC 12228); and the fungal strains employed included Candida albicans (ATCC 14053), Candida glabrata (ATCC 2001), Candida parapsilosis (ATCC 22019), Candida tropicalis (ATCC 750) and Candida krusei (ATCC 6258), all of which were standard strains from American Type Culture Collection. In addition, drug-resistant strains S-1a, S-2a, S-3a, S-4a, E-1b, E-2b, E-3b, E-4b, E-5b, P-1c, P-2c, P-3c, P-4c, P-5c, and clinically isolated fungal strains Candida glabrata 2-1 and Candida albicans 14-1, 14-2 and 14-3 were employed, all which were clinically isolated.
(§4) Simply, a proper amount of the cryopreserved bacterium or fungus was added to fresh MH/SD medium, and cultured on a shaker overnight at 180 rpm at 37° C. The obtained cells were seeded again and cultured on a shaker for 4-5 hours to obtain cells in logarithmic phase. The resulting cells were added to a 96-well plate (1×10^5 CFU/ml, 100 μL/well), and then 100 μL of polypeptide with different concentrations (1-256 μM) twice the final concentrations was added to corresponding well according to the 2-fold serial dilution method. The fresh medium was used as a negative control, which was prepared in triplicate for each concentration. After dosing, the 96-well plate was placed in an incubator at constant 37° C. and humidity for 12 hours to observe the results. According to naked eye observations, the concentration of the compound in the first transparent well following the turbid wells was recorded as the MIC of the compound, namely, the MIC value of the compound to the bacterium or fungus.

[5] = system: S-3a, clinical isolated drug-resistant strain MRSA; conditions: strain S-3a (MRSA)
Text: as §3, §4

C. albicans ATCC14053 = conditions: ATCC14053
Text: as §3, §4

[6] = system: P-5c, clinical isolated drug-resistant strain PA; conditions: strain P-5c (PA)
Text: as §3, §4

[7] = system: Staphylococcus aureus (ATCC 29213); conditions: ATCC 29213
Text: as §3, §4

[8] = system: S-1a, clinical isolated drug-resistant strain MRSA; conditions: strain S-1a (MRSA)
Text: as §3, §4

[9] = system: P-4c, clinical isolated drug-resistant strain PA; conditions: strain P-4c (PA)
Text: as §3, §4

[10] = system: P-3c, clinical isolated drug-resistant strain PA; conditions: strain P-3c (PA)
Text: as §3, §4

C. parapsilosis ATCC2001 = conditions: ATCC2001
Text: as §3, §4

[11] = system: E-2b, clinical isolated drug-resistant strain ESBL; conditions: strain E-2b (ESBL)
Text: as §3, §4

[12] = system: E-1b, clinical isolated drug-resistant strain ESBL; conditions: strain E-1b (ESBL)
Text: as §3, §4

C. tropicalis ATCC750 = conditions: ATCC750
Text: as §3, §4

C. glabrata ATCC22019 = conditions: ATCC22019
Text: as §3, §4

[13] = system: E-4b, clinical isolated drug-resistant strain ESBL; conditions: strain E-4b (ESBL)
Text: as §3, §4

[14] = system: S-4a, clinical isolated drug-resistant strain MRSA; conditions: strain S-4a (MRSA)
Text: as §3, §4

[15] = system: Pseudomonas aeruginosa (ATCC 27853); conditions: standard strain
Text: as §3, §4

[16] = system: P-2c, clinical isolated drug-resistant strain PA; conditions: strain P-2c (PA)
Text: as §3, §4

[17] = system: E-3b, clinical isolated drug-resistant strain ESBL; conditions: strain E-3b (ESBL)
Text: as §3, §4

[18] = system: E-5b, clinical isolated drug-resistant strain ESBL; conditions: strain E-5b (ESBL)
Text: as §3, §4

[19] = system: Bacillus subtilis (ATCC 23857); conditions: ATCC 23857
Text: as §3, §4

[20] = system: Cronobacter sakazakii (ATCC 29544); conditions: ATCC 29544
Text: as §3, §4

C. krusei ATCC6258 = conditions: ATCC6258
Text: as §3, §4

[21] = system: Staphylococcus epidermidis (ATCC 12228); conditions: ATCC 12228
Text: as §3, §4

[22] = system: S-2a, clinical isolated drug-resistant strain MRSA; conditions: strain S-2a (MRSA)
Text: as §3, §4

E. coli (ATCC 25922) = conditions: ATCC 25922
Text: as §3, §4

Acute toxicity in mice = experiment: Acute toxicity in mice; parameters: species or system Kunming mice; conditions: mouse, in vivo, ip, intraperitoneal injection, Karber method
Procedure: Acute toxicity of the compounds was determined by measuring the acute toxicity in mice with the compounds.
Taking compounds 2, 8, 9, 13 and 15 of the present invention as examples, […]. The mice used in this test were Kunming mice, which were placed in constant-temperature environment (22±1° C.) and could freely obtain water and food. Simply, 132 healthy Kunming mice were randomly divided into 11 groups, with 12 mice in each group (half male and half female), wherein, 5 groups were intraperitoneally injected with 0.2 ml of the compounds of different doses (100-1000 mg/kg), and the control group was intraperitoneally injected with normal saline. In this experiment, melittin was used as a reference control, and the other 5 groups were intraperitoneally injected with melittin of different doses (10-32 mg/kg). The state of mice was observed and recorded after 2 hours of administration, and then observed twice a day for 14 days, and the survival rates of the mice were recorded.

| Substance | effect on proliferation (inhibitory activity) [1] | effect on proliferation (inhibitory activity) [2] | effect on proliferation (inhibitory activity) [3] | MIC [4] [µM] | MIC [5] [µM] | MIC C. albicans ATCC14053 (C. albicans ATCC14053) [µM] | MIC [6] [µM] | MIC S. aureus ATCC29213 [7] [µM] | MIC [8] [µM] | MIC [9] [µM] | MIC [10] [µM] | MIC C. parapsilosis ATCC2001 (C. parapsilosis ATCC2001) [µM] | MIC [11] [µM] | MIC [12] [µM] | MIC C. tropicalis ATCC750 (C. tropicalis ATCC750) [µM] | MIC C. glabrata ATCC22019 (C. glabrata ATCC22019) [µM] | MIC [13] [µM] | MIC [14] [µM] | MIC P. aerugmosa ATCC27853 [15] [µM] | MIC [16] [µM] | further results |
| --- | --- | --- | --- | --- | --- | --- | --- | --- | --- | --- | --- | --- | --- | --- | --- | --- | --- | --- | --- | --- | --- |
| PWKLSLHL-NH2 [Compound 8] | no inhibitory activity | no inhibitory activity | no inhibitory activity | 16 | 64 | 16 | 8 | 64 | 64 | 8 | 8 | 16 | 16 | 16 | 16 | 16 | 16 | 64 | 16 | 8 | MIC [17]: 16 µM; MIC [18]: 16 µM; MIC B. subtilis ATCC23857 [19]: 16 µM; MIC C. sakazakii ATCC29544 [20]: 16 µM; MIC C. krusei ATCC6258 (C. krusei ATCC6258): 32 µM; MIC S. epidermidis ATCC12228 [21]: 32 µM; MIC [22]: 64 µM; MIC C. coli ATCC25922 (E. coli (ATCC 25922)): 16 µM; LD50 (Acute toxicity in mice): > 1000 mg/kg |
| PWRLRLHL-NH2 [Compound 13] | no inhibitory activity | no inhibitory activity | no inhibitory activity | 8 | 32 | 32 | 4 | 32 | 32 | 4 | 4 | 8 | 8 | 8 | 8 | 8 | 8 | 32 | 4 | 4 | MIC [17]: 4 µM; MIC [18]: 4 µM; MIC B. subtilis ATCC23857 [19]: 8 µM; MIC C. sakazakii ATCC29544 [20]: 8 µM; MIC C. krusei ATCC6258 (C. krusei ATCC6258): 32 µM; MIC S. epidermidis ATCC12228 [21]: 16 µM; MIC [22]: 32 µM; MIC C. coli ATCC25922 (E. coli (ATCC 25922)): 8 µM; LD50 (Acute toxicity in mice): > 1000 mg/kg |

From patent US20250345492A1, “AN ANTIBACTERIAL POLYPEPTIDE COMPOUND, A MEDICAL DEVICE, HYDROGEL AND USE THEREOF” (priority 2020, published 2025)
